Laboratory results taken from patent US5349127A, “Expression of herbicide metabolizing cytochromes P450” (priority 1992, dated 1994).

What was measured:
[1] = tested on: S. lividans pCAO200SU1-FeS-B#9; experiment: Percent conversion of herbicides by cultures (Example 16); format: in vitro ADME, Streptomyces lividans; details: for Percent Conversion: 3.0 mg herbicide in 25 ml broth, 24 hours
Method: (§1) Separate cultures (50 ml) inoculated with S. lividans C37, S. lividans transformed with pCAO200SU1-FeS-B#9, S. griseolus ATCC11796, S. griseolus PH2003 transformed with pIJ425, or S. ariseolus PH2003 transformed with pCS325 were cultured in sporulation broth for 18 hours at 30° C. with shaking. Each culture was then resuspended in 25 ml fresh sporulation broth and 3.0 mg herbicide added. In the case of cultures of S. griseolus ATCC11796, a second culture containing herbicide and 3.0 mg 10001 was also prepared. Each culture was reincubated for 24 hours, then an aliquot of the medium was withdrawn and analyzed by HPLC. The percent conversion of herbicide was determined.

[2] = tested on: S. griseolus PH2003 pCS325; experiment: as above; format: in vitro ADME, Streptomyces griseolus; details: for Percent Conversion: 3.0 mg herbicide in 25 ml broth, 24 hours; for metabolism by bacteria containing constitutively expressed P450SU2: summary of Table 13
Method: as §1

[3] = tested on: S. griseolus PH2003 pIJ425; experiment: as above; format: in vitro ADME, Streptomyces griseolus; details: 3.0 mg herbicide in 25 ml broth; 24 hours
Method: as §1

S. lividans C37 = experiment: as above; format: in vitro ADME, Streptomyces lividans; details: 3.0 mg herbicide in 25 ml broth; 24 hours
Method: as §1

S. griseolus ATCC11796 = experiment: Metabolism of 10015 analogs to 10014 (Example 17); format: in vitro ADME, Streptomyces griseolus
Method: Cultures of S. griseolus ATCC11796 were cultivated in sporulation-broth (50ml) at 30° C. with shaking for 17 hours. Each culture was then resuspended in 25 ml fresh sporulation broth, 3.0 mg sulfonylurea was added, and the culture reincubated for 4 days. Aliquots of the medium were then analyzed by HPLC. Formation of 10014 was measured based on similarity of retention time and UV spectrum of the test metabolite to that formed by metabolism of 10015.

[4] = tested on: S. lividans pCAO200SU1-FeS-B#9; experiment: Percent conversion of non-sulfonylurea herbicides (Example 29); format: in vitro ADME, Streptomyces lividans; details: for Percent Conversion: 3.0 mg herbicide in 25 ml broth, 18 hours; for metabolism by bacteria containing constitutively expressed P450SU1: summary of Table 29
Method: This experiment was performed as in Example 17 with the following changes. Separate cultures (50 ml) inoculated with S. lividans C37, S. lividans transformed with pCAO200SU1-FeS-B#9, or S. griseolus ATCC11796 were cultured in sporulation broth for 18 hours at 30° C. with shaking. Each culture was then resuspended in 25 ml fresh sporulation broth and 3.0 mg herbicide added. Each culture was reincubated for 18 hours, then an aliquot of the medium was withdrawn and analyzed by HPLC. The percent conversion of herbicide was determined.

[5] = tested on: S. lividans pCAO200SU1-FeS-B#9; experiment: Sulfonylurea metabolism by washed cell suspension (Examples 6-9); format: in vitro ADME, Streptomyces lividans
Method: (§2) Herbicides and their metabolites are measured by HPLC as described by Romesser et al., BBRC 140: 650-659 (1986), herein incorporated by reference, except that 0.1% H3 PO4 is used in both solvents. Chromatographic identity and quantitation of the herbicides and their resulting metabolites is determined by comparing them chromatographically with authentic standard compounds. Identity of the resulting metabolites is also confirmed by UV spectroscopy.
A 100 ml culture of S. griseolus ATCC 11796 in sporulation broth and a 50 ml culture of S. lividans transformed with pCAO400 in YEME broth were prepared and incubated for 24 hours as described. At that time, the S. griseolus culture was split into two 50 ml aliquots into two separate flasks and 25 ml of fresh sporulation broth was added to each and 9 mg of […] was added to one of these cultures to induce cytochrome P450SU1 expression. Fresh YEME broth (25 ml) was added to the S. lividans culture. After an additional 6 hours growth at 30° C., the cells in each culture were harvested as described above, washed twice with MOPS (50 mM, pH 7.2) and recentrifuged. The cell pellets were resuspended in four cell volumes of MOPS (50 mM, pH 7.2) containing 0.2% glucose and about 100 μg/ml of 10004. These cell suspensions were incubated at 30° C. with shaking and aliqouts were taken at 2 and 5.5 hours. The supernatant of each aliquot was analyzed by HPLC and the concentrations of the sulfonylurea compound 10004 and its metabolite 10005 were determined.
S. lividans transformed respectively with pCAO200SU1-FeS-B#9, pCAO200SU#112and pCAO200 were cultured for 36 hours in 400 ml of YEME broth at 30° C. S. griseolus ATCC 11796 was similarly cultured in 400 ml of sporulation broth. Six hours before harvesting the cells, 150 ml of fresh YEME broth was added to the S. lividans cells, and the S. griseolus cells were split into two 200 ml cultures with 100 ml of fresh sporulation broth added to each. 10001 (36 mg) was added to one of the two S. griseolus cultures to induce cytochrome P450SU1. […]

[6] = tested on: S. lividans pCAO200SU1#12; experiment: as above; format: in vitro ADME, Streptomyces lividans
Method: as §2, with “spectroscopy. […]” for “spectroscopy.”
(§3) S. lividans transformed respectively with pCAO200SU1-FeS-B#9, pCAO200SU#112and pCAO200 were cultured for 36 hours in 400 ml of YEME broth at 30° C. S. griseolus ATCC 11796 was similarly cultured in 400 ml of sporulation broth. Six hours before harvesting the cells, 150 ml of fresh YEME broth was added to the S. lividans cells, and the S. griseolus cells were split into two 200 ml cultures with 100 ml of fresh sporulation broth added to each. 10001 (36 mg) was added to one of the two S. griseolus cultures to induce cytochrome P450SU1. The cells were prepared as described above in Example 5 and the concentrations of the sulfonylurea compound 10006 and its metabolites 10007, 10008 or 10009 were determined.

S. lividans pCAO200 [7] = experiment: as above; format: in vitro ADME, Streptomyces lividans; details: substrate 10006
Method: as §2, with “spectroscopy. […]” for “spectroscopy.”
as §3

S. lividans pCAO200 [8] = experiment: as above; format: in vitro ADME, Streptomyces lividans; details: substrate 10010
[9] = tested on: S. lividans pCAO200SU2-FeS-A#11; experiment: Sulfonylurea metabolism by washed cell suspension (Examples 11-12); format: in vitro ADME, Streptomyces lividans; details: substrate 10010

With COC(=O)C1Cc2c(c(Cl)cc(F)c2N2C(=O)C3=C(CCCC3)C2=O)O1 (centres unmarked) [compound 10020, 7-chloro-5-fluoro-4-(2,3,4,5,6,7-hexahydro-1,3-dioxo-1H-isoindol-2-yl)-2,3-dihydro-2-benzofurancarboxylic acid, methyl ester] the “Percent Conversion” value [1] was 19%, the “Percent Conversion” value [2] was 89% and the “metabolism by bacteria containing constitutively expressed P450SU2” value (“metabolism … expressed P450SU2” for short) [2] was “metabolized”. The “Percent Conversion” value [3] was 7%.
For CCNc1nc(Cl)nc(NC(C)(C)C#N)n1 [compound 10021, 2-[4-chloro-6-(ethylamino-1,3,5-triazin-2-yl)amino]-2-methylpropanenitrile], the “Percent Conversion” value (S. lividans C37) was 0%, the “Percent Conversion” value [1] was 23% and the “Percent Conversion” value [2] was 93%. The “metabolism … expressed P450SU2” value [2] was “metabolized” and the “Percent Conversion” value [3] was 7%.
COc1cc(OC)nc(NC(=O)NS(=O)(=O)c2cccc3c2S(=O)(=O)N(Cc2ccccc2)C3)n1 [compound 10025, N-[(4,6-dimethoxypyrimidin-2-yl)aminocarbonyl]2,3-dihydro-2-(phenylmethyl)-1,2-benzisothiazole-7-sulfonamide-1,1-dioxide] was tested, and the “metabolism by P450SU1 to phytotoxic 10014” value (from here on “metabolism by P450SU1”) (S. griseolus ATCC11796) was “metabolized”.
In the case of COc1cc(OC)nc(NC(=O)NS(=O)(=O)c2cccc3c2S(=O)(=O)N(C[Si](C)(C)C)C3)n1 [compound 10032, N-[(4,6-dimethoxypyrimidin-2-yl)aminocarbonyl]-2,3-dihydro-2-(trimethylsilylmethyl)-1,2-benzisothiazole-7-sulfonamide-1,1-dioxide], the “% Conversion to 10014” value (S. griseolus ATCC11796; 3.0 mg sulfonylurea in 25 ml broth, 4 days) was 0%.
In the case of Cc1cc(C)n2nc(S(=O)(=O)Nc3c(C)cccc3Cl)nc2n1 [compound 10033, N-(2-chloro-6-methylphenyl)-5,7-dimethyl-1,2,4-triazolo-1,5A-pyrimidine-2-sulfonamide], the “Percent Conversion” value [4] was 88% and the “metabolism by bacteria containing constitutively expressed P450SU1” value (“metabolism … expressed P450SU1” below) [4] was “metabolized”.
C[n+]1cccnc1[O-] [compound 10022, 1-methyl-2(1H)-pyrimidinone] was tested, and the “Percent Conversion” value [1] was 42%, the “Percent Conversion” value [2] was 96% and the “metabolism … expressed P450SU2” value [2] was “metabolized”. For the same compound, the “Percent Conversion” value [3] was 0%.
With COc1cc(OC)nc(NC(=O)NS(=O)(=O)c2cccc3c2S(=O)(=O)N(CCF)C3)n1 [compound 10026, N-[(4,6-dimethoxypyrimidin-2-yl)aminocarbonyl]-2-(2-fluoroethy1)-2,3-dihydro-1,2-benzisothiazole-7-sul fonamide-1,1-dioxide] the “metabolism by P450SU1” value (S. griseolus ATCC11796) was “metabolized”.
With COc1nc(C)nc(=NC(=O)NS(=O)(=O)c2ccccc2C(=O)O)[nH]1 [compound 10008, N-[(4-methoxy-6-methyl-1,3,5-triazinyl)aminocarbonyl]-2-carboxybenzenesulfonamide] the concentration in supernatant ([5]; substrate 10006, 2 h) was 18 µM, the concentration in supernatant ([5]; substrate 10006, 4 h) was 38 µM and the concentration in supernatant ([5]; substrate 10006, 6 h) was 55 µM. It also gave a concentration in supernatant ([6]; substrate 10006, 2 h) of 1 µM, a concentration in supernatant ([6]; substrate 10006, 4 h) of 1 µM and a concentration in supernatant ([6]; substrate 10006, 6 h) of 1 µM. For the same compound, the concentration in supernatant (S. lividans pCAO200 [7]; 2 h) was 0 nM, the concentration in supernatant (S. lividans pCAO200 [7]; 4 h) was 0 nM and the concentration in supernatant (S. lividans pCAO200 [7]; 6 h) was 0 nM.
With C=CCN1Cc2cccc(S(=O)(=O)NC(=O)Nc3nc(OC)cc(OC)n3)c2S1(=O)=O [compound 10028, N-[(4,6-dimethoxypyrimidin-2-yl)aminocarbonyl]-2,3-dihydro-2-(2-propenyl)-1,2-benzisothiazole-7-sulfonamide-1,1-dioxide] the “metabolism by P450SU1” value (S. griseolus ATCC11796) was “metabolized”.
CSc1nnc(C(C)(C)C)c(=O)n1N [compound 10018, 4-amino-6-tert-butyl-3-(methylthio)-AS-triazin-5(4H)-one] was tested, and the “Percent Conversion” value (S. lividans C37) was 0%, the “Percent Conversion” value [1] was 56% and the “metabolism … expressed P450SU1” value ([1]; summary of Table 13) was “metabolized”. The “Percent Conversion” value [2] was 72%, the “metabolism … expressed P450SU2” value [2] was “metabolized” and the “Percent Conversion” value [3] was 10%.
For COC(=O)c1ccccc1S(=O)(=O)NC(=O)Nc1nc(C)cc(CO)n1 [compound 10011, N-[(4-hydroxymethyl-6-methyl-pyrimidin-2-yl)aminocarbonyl]-2-methoxycarbonylbenzenesulfonamide], the concentration in supernatant ([5]; substrate 10010, 2 h) was 34 µM, the concentration in supernatant ([5]; substrate 10010, 4 h) was 37 µM and the concentration in supernatant ([5]; substrate 10010, 6 h) was 27 µM. For the same compound, the concentration in supernatant ([6]; substrate 10010, 2 h) was 4 µM, the concentration in supernatant ([6]; substrate 10010, 4 h) was 7 µM and the concentration in supernatant ([6]; substrate 10010, 6 h) was 11 µM. The concentration in supernatant (S. lividans pCAO200 [8]; 2 h) was 1 µM, the concentration in supernatant (S. lividans pCAO200 [8]; 4 h) was 2 µM and the concentration in supernatant (S. lividans pCAO200 [8]; 6 h) was 3 µM. It also gave a concentration in supernatant ([9]; 2 h) of 1 µM, a concentration in supernatant ([9]; 4 h) of 5 µM and a concentration in supernatant ([9]; 6 h) of 14 µM.
In the case of CCCN1Cc2cccc(S(=O)(=O)NC(=O)Nc3nc(OC)cc(OC)n3)c2S1(=O)=O [compound 10027, N-[(4,6-dimethoxypyrimidin-2-yl)aminocarbonyl]-2,3-dihydro-2-propyl-1,2-benzisothiazole-7-sulfonamide-1,1-dioxide], the “metabolism by P450SU1” value (S. griseolus ATCC11796) was “metabolized”.
In the case of Cc1cc(C)nc(S(=O)(=O)Nc2c(Cl)cccc2Cl)n1 [compound 10036, N-(2,6-dichlorophenyl)-4,6-dimethyl-2-pyrimidinesulfonamide], the “Percent Conversion” value [4] was 100% and the “metabolism … expressed P450SU1” value [4] was “metabolized”.
For CCN1Cc2cccc(S(=O)(=O)NC(=O)Nc3nc(OC)cc(OC)n3)c2S1(=O)=O [compound 10024, N-[(4,6-dimethoxypyrimidin-2-yl)aminocarbonyl]-2-ethyl-2,3-dihydro-1,2-benzisothiazole-7-sulfonamide-1,1-dioxide], the “metabolism by P450SU1” value (S. griseolus ATCC11796) was “metabolized”.
